# Data taken from patent US20260102377A1, “COMPOSITIONS AND METHODS FOR TREATING MYASTHENIA GRAVIS” (priority 2022, published 2026).
# “Also recorded” adds a separate entry of the source. Where two headings read alike, the source gives them in different places.
# Columns and labels:
# [1] = test system: patients with myasthenia gravis; assay: Phase IIA clinical trial (Part C): repetitive nerve stimulation (CMAP decrement, nasalis muscle); assay type: in vivo, human; conditions: for RNS decrement responders / Patients with RNS decrement at baseline who recovered (less than 5% decrement): 3- and 5-hour measurements; for RNS decrement responders: placebo 0%
# Protocol: (§1) For each subject, the study consisted of three study periods during which subjects received either a single dose of NMD670 400 mg, NMD670 1200 mg, or placebo with a 7-day washout period between visits. On these study visits, subjects were asked to refrain from their regular dose of pyridostigmine (if applicable) from 14 h before dosing until after the last pharmacodynamic measurement on Day 1 (see Table 13: Visit and Assessment Schedule). The cross-over design allowed intra-individual comparison of drug effects versus placebo (see FIG. 16). A balanced design was applied to control for first-order carry-over effects.
# (§2) Part C was a double-blinded, placebo-controlled, three-way cross-over comparison of two single oral doses of NMD670 in men and women with stable symptomatic myasthenia gravis. 12 patients were enrolled. For each subject, the study consisted of three study periods during which subjects received either a single dose of NMD670 or placebo. On these study visits, subjects were asked to refrain from their regular dose of pyridostigmine (if applicable) for 14 hours before dosing. Single doses were administered in randomized order (400 mg free acid, 1200 mg free acid, or placebo p.o.), with a 7-day washout period between visits (FIG. 16). NMD670/placebo was administered with 240 ml of still water.
# RNS uses trains of 10 supramaximal electrical stimuli at 3 and 5 Hz using a Medelec Synergy 11.0. The optimal stimulation site on the skin is identified using inframaximal stimuli, after which the limit of supramaximal intensity is established. The working intensity is about 130% of that threshold. RNS is performed on the facial nerve/nasalis muscle combination. Techniques have been described previously (Niks et al., Muscle & Nerve, 2003, 28(2):236-238; Ruys-Van Oeyen et al., Muscle & Nerve, 2002, 26(2):279-282; Schumm et al., Muscle & Nerve, 1984, 7(2):147-151).
# Compound Muscle Action Potentials (CMAPs) were recorded from the nasalis muscle in response to nerve stimulation. Decrement refers to decline in CMAP amplitude during repeated stimulation and indicates neuromuscular transmission failure.
# [2] = Phase I clinical trial Part A: pharmacokinetics; assay type: in vivo; conditions: human; for Cmax / half-life / AUC(0-inf): plasma; for AUC(0-inf): read-out: AUC0-infinity (Mean ± SD, h · ng/mL)
# [3] = Phase IIA clinical trial (Part C): pharmacokinetics in patients; assay type: in vivo; conditions: both sexes, human, plasma; for AUC(0-inf): read-out: AUC0-infinity (Mean ± SD, h · ng/mL); for Cmax: read-out: Cmax (Mean ± SD, ng/mL); for half-life: read-out: T1/2 (median, hr) (converted); for Tmax: read-out: Tmax (median, hr)
# Protocol: • Collect blood (3 mL recommended) onto wet ice (K2EDTA tubes) • Immediately cool blood on crushed wet ice for maximum of 30 minutes • Harvest plasma as quickly as possible using refrigerated centrifuge by centrifuging at 2000 g for 10 minutes at 4° C. • Keep plasma on wet ice and immediately stabilise with 1:1 (v/v) addition of Water: Orthophosphoric Acid (100:2 v/v) prepared using ≥85% orthophosphoric acid and deionised water (e.g. 750 μL plasma+750 μL stabiliser). • Mix sample thoroughly. • Keep the stabilised plasma on wet ice during subsequent steps. • Divide the stabilised plasma into 5×250 μL aliquots in plastic cryotubes. • Store aliquots at nominal −70° C./−80° C. promptly.
# • 1. Thaw frozen calibration standards, QC samples, blank matrix and study samples on wet ice. • 2. Vortex-mix all samples thoroughly. • 3. On wet ice aliquot 150 μL of calibration standards, QC samples, study samples, and blanks into a 2 mL 96-well plate. For the reagent blank add the same volume of Water. • 4. On wet ice add 25 μL of Methanol:Water (50:50) to wells containing blanks and the same volume of ISTD intermediate solution to all other wells. • 5. On wet ice add 125 μL of Water to each well. Cap plate and vortex-mix (˜5 minutes, 1000 rpm). • 6. Centrifuge plate (˜3000 g, 3 minutes, room temperature). • 7. Condition SPE plate (Waters Oasis HLB pElution) with 250 μL Methanol. • 8. Condition SPE plate with 250 μL of Water. • 9. Load 250 μL of the sample onto the SPE plate (aspirate from the rim of the cone to avoid any debris collected at the bottom of the well). Pass through using minimum pressure. • 10. Wash SPE plate with 250 μL of Water. • 11. Wash SPE plate with 250 μL of Methanol:Water (5:95). Briefly increase pressure for one minute to ensure sorbent is partially dried. • 12. Elute from SPE plate into a 1.2 mL 96-well plate using 30 μL of Methanol. Stand for one minute then pass through using absolute minimum pressure. • 13. Elute again with another 30 μL of Methanol, collecting into the same plate. Briefly increase pressure for one minute to complete the elution. • 14. Add 125 μL of Ammonium Formate 10 mM (aq):Formic Acid (100:0.3) to each well. Cap plate and vortex mix (˜1 minute, ≥1200 rpm). • 15. Store plate refrigerated prior to analysis.
# as §1, §2
# [4] = test system: patients with myasthenia gravis; assay: Phase IIA clinical trial (Part C): hand grip strength (Jamar dynamometer); assay type: in vivo, human
# Protocol: as §1, §2
# Hand grip was evaluated with a Jamar hand grip dynamometer. An analysis of hand grip strength, an item of QMG score and therefore not an independent variable for the total score, was also performed (table 18).
# [5] = male, po, 1600 mg, 1600 mg single oral dose, healthy male subjects, SD not given
structure (smiles),measurement,setting,value
"C[C@H](Oc1ccc(Br)cc1-c1ccon1)C(=O)O [NMD670, (2S)-2-[4-bromo-2-(1,2-oxazol-3-yl)phenoxy]propanoic acid]",Treatment effect on CMAP decrement (continuous measurements),"[1]; 400 mg and 1200 mg single doses, nasalis muscle",No significant treatment effects and no trends of dose-dependent effects
same,RNS decrement responders,[1]; 400 mg arm,83%
same,Patients with RNS decrement at baseline who recovered (less than 5% decrement),"[1]; 400 mg arm, of 6 subjects with decrement at baseline",5 subjects
same,RNS decrement responders,[1]; 1200 mg arm,33%
same,Patients with RNS decrement at baseline who recovered (less than 5% decrement),"[1]; 1200 mg arm, of 3 subjects with decrement at baseline",1 subjects
same,Cmax,"[2]; female, po, 800 mg, 800 mg (female), single oral dose, read-out: Cmax (Mean ± SD, ng/mL)",44400 ± 7480 ng/mL
same,Accumulation between single and multiple dosing,[2]; phase 1 FIH study,no meaningful accumulation
same,half-life,"[2]; oral, mostly eliminated in 24 hours, read-out: Half-life (converted)",~5 h
same,Cmax,"[2]; male, po, 50 mg, 50 mg single oral dose, healthy male subjects, read-out: Cmax (Mean ± SD, ng/mL)",1900 ± 580 ng/mL
same,AUC(0-inf),"[2]; male, po, 100 mg, 100 mg single oral dose, healthy male subjects",18.5 ± 1.77 µg·h/mL
same,Cmax,"[2]; male, po, 100 mg, 100 mg single oral dose, healthy male subjects, read-out: Cmax (Mean ± SD, ng/mL)",3980 ± 1190 ng/mL
same,half-life,"[2]; male, po, 100 mg, 100 mg single oral dose, healthy male subjects, read-out: T1/2 (mean ± SD, hr) (converted)",5.07 ± 0.63 h
same,AUC(0-inf),"[2]; male, po, 200 mg, 200 mg single oral dose, healthy male subjects",36.1 ± 5.03 µg·h/mL
same,Cmax,"[2]; male, po, 200 mg, 200 mg single oral dose, healthy male subjects, read-out: Cmax (Mean ± SD, ng/mL)",7780 ± 1130 ng/mL
same,half-life,"[2]; male, po, 200 mg, 200 mg single oral dose, healthy male subjects, read-out: T1/2 (mean ± SD, hr) (converted)",4.6 ± 0.67 h
same,AUC(0-inf),"[2]; male, po, 400 mg, 400 mg single oral dose, healthy male subjects",87.7 ± 21.4 µg·h/mL
same,Cmax,"[2]; male, po, 400 mg, 400 mg single oral dose, healthy male subjects, read-out: Cmax (Mean ± SD, ng/mL)",20100 ± 7340 ng/mL
same,half-life,"[2]; male, po, 400 mg, 400 mg single oral dose, healthy male subjects, read-out: T1/2 (mean ± SD, hr) (converted)",4.68 ± 0.49 h
same,AUC(0-inf),"[2]; male, po, 800 mg, 800 mg fasted (male), single oral dose",191 ± 31.5 µg·h/mL
same,Cmax,"[2]; male, po, 800 mg, 800 mg fasted (male), single oral dose, read-out: Cmax (Mean ± SD, ng/mL)",36700 ± 15400 ng/mL
same,AUC(0-inf),"[2]; male, po, 800 mg, 800 mg fed (male), single oral dose",180 ± 27.9 µg·h/mL
same,Cmax,"[2]; male, po, 800 mg, 800 mg fed (male), single oral dose, read-out: Cmax (Mean ± SD, ng/mL)",37300 ± 7420 ng/mL
same,AUC(0-inf),"[2]; male, po, 1200 mg, 1200 mg single oral dose, healthy male subjects",358 ± 176 µg·h/mL
same,Cmax,"[2]; male, po, 1200 mg, 1200 mg single oral dose, healthy male subjects, read-out: Cmax (Mean ± SD, ng/mL)",55000 ± 21700 ng/mL
same,half-life,"[2]; male, po, 1200 mg, 1200 mg single oral dose, healthy male subjects, read-out: T1/2 (mean ± SD, hr) (converted)",6.11 ± 1.28 h
same,Cmax,[2]; [5],123000 ng/mL
same,AUC(0-inf),[2]; [5],826 µg·h/mL
same,half-life,"[2]; male, po, 1600 mg, 1600 mg single oral dose, healthy male subjects, SD not given, read-out: T1/2 (mean ± SD, hr) (converted)",4.48 h
same,AUC(0-inf),[3]; 400 mg single oral dose,93.7 µg·h/mL
same,Cmax,[3]; 400 mg single oral dose,21700 ng/mL
same,half-life,[3]; 400 mg single oral dose,5.43 h
same,Tmax,[3]; 400 mg single oral dose,2 h
same,AUC(0-inf),[3]; 1200 mg single oral dose,378 µg·h/mL
same,Cmax,[3]; 1200 mg single oral dose,76700 ng/mL
same,half-life,[3]; 1200 mg single oral dose,5.06 h
same,Tmax,[3]; 1200 mg single oral dose,2 h
same,"Right-hand grip strength, CFB over placebo, Arithmetic mean","[4]; 400 mg versus placebo, 3-hour",2.4 kg
same,"Right-hand grip strength, CFB over placebo, LSM","[4]; 400 mg versus placebo, 3-hour, p = 0.05",2.4 kg
same,"Right-hand grip strength, CFB over placebo, Arithmetic mean","[4]; 400 mg versus placebo, 5-hour",0.4 kg
same,"Right-hand grip strength, CFB over placebo, LSM","[4]; 400 mg versus placebo, 5-hour, p = 0.76",0.4 kg
same,"Right-hand grip strength, CFB over placebo, LSM","[4]; 400 mg versus placebo, Overall, p = 0.19",1.4 kg
same,"Right-hand grip strength, CFB over placebo, Arithmetic mean","[4]; 1200 mg versus placebo, 3-hour",2.9 kg
same,"Right-hand grip strength, CFB over placebo, LSM","[4]; 1200 mg versus placebo, 3-hour, p = 0.02",2.9 kg
same,"Right-hand grip strength, CFB over placebo, Arithmetic mean","[4]; 1200 mg versus placebo, 5-hour",2.8 kg
same,"Right-hand grip strength, CFB over placebo, LSM","[4]; 1200 mg versus placebo, 5-hour, p = 0.03",2.8 kg
same,"Right-hand grip strength, CFB over placebo, LSM","[4]; 1200 mg versus placebo, Overall, p = 0.01",2.8 kg
same,"Change from baseline over placebo in hand grip strength, left and right hand","[4]; both doses (400 mg, 1200 mg), statistically significant for the right hand",improved; also recorded: numerically positive
